In US9353096B2, “Substituted phenylcarbamate compounds” (Hoffmann-La Roche Inc., priority 2012, dated 2016) one finds IC50 data, which are given here for five molecules.

Where a name gives a salt, the structure may show the parent alone.

hTRPA1, sequence (O75762 whole entry): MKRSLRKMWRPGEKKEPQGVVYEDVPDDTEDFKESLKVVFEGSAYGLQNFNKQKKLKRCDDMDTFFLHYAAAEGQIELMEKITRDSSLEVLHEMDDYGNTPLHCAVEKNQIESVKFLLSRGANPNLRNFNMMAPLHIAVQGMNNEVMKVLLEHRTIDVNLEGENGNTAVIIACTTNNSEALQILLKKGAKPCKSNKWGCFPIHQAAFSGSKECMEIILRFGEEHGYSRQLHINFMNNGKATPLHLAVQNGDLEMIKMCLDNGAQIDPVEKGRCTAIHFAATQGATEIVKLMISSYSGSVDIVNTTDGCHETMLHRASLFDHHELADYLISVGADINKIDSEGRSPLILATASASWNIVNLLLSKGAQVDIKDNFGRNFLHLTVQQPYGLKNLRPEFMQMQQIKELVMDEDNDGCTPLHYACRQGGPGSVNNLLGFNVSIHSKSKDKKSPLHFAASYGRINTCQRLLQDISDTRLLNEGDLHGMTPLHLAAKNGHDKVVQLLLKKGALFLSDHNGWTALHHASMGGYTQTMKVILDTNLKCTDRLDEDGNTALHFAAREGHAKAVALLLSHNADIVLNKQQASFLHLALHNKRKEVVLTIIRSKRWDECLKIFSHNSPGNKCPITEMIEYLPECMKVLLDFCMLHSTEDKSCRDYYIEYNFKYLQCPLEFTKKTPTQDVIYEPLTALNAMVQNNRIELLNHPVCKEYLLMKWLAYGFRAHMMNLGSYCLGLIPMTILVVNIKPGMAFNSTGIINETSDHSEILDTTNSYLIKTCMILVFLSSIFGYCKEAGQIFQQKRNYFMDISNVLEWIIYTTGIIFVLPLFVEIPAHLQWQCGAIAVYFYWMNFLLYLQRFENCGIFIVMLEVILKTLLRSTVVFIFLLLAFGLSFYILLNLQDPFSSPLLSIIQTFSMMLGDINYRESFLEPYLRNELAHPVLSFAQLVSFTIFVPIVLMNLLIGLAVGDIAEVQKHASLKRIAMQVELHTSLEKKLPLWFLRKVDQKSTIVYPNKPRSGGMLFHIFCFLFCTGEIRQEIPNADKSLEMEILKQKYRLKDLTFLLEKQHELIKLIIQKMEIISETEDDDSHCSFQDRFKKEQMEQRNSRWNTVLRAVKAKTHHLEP

This experiment addresses hTRPA1 (Homo sapiens, UniProt O75762). Put plainly: Dose response calcium flux (FLIPR) assay, ChanTest hTRPA1-CHO stably transfected cell line, cinnamaldehyde agonist. The class given is cell-based. Conditions: CHO-K1 Tet-On hTRPA1 cells, 100 uM cinnamaldehyde agonist, 30 min preincubation. The procedure: Dose Response Assay:ChanTest hTRPA1-CHO Stably Transfected Cell Line
CHO-K1 Tet-On_HOMSA_TRPA1_Clone_20
Growth Media for CHO-K1 Tet-On_HOMSA_TRPA1_Clone_20 • Ham's F-12 with 10% tetracycline-free FBS • 1× penicillin-streptomycin • 1× glutamax • 0.01 mg/ml Blasticidin • 0.40 mg/ml Zeocin • The cell line doubling rate was ˜15 h. […] Experiments were run at 24 h post induction.
Plating Conditions CHOK1/TRPA1 Cells: • Harvested cells with 0.025% trypsin/EDTA. • Resuspended cells in growth media without selection antibiotics. • Measured cell density and diluted to 2.4×10^5 cells/ml in media containing 1 ug/ml Doxycycline Plate 25 ul/well into 384 well black/clear tissue culture-treated plates. • Incubated overnight at 37° C.
Replacement Buffer: Hank's Balanced Salt Solution, 20 mM HEPES along with 0.005% BSA and 2× Probenecid
Dye Loading Buffer: Cal-3 NW Calcium dye was prepared by dissolving the contents of one vial with […] Hank's Balanced Salt Solution containing 20 mM HEPES.
AP-18, stock 10 mM, prepare 3.5× compound dilution in a Compound Buffer (HBSS/20 mM HEPES/0.005% BSA)—final concentration 10 uM.
Preparation of Cinnamaldehyde (Agonist Addition): • FW=132.16 • Specific gravity=1.046 gm/cc • 1.32 gm/1.046 gm/cc=1.26 ml of stock • Add 1.74 ml DMSO=3.3 M stock • Working solution 4.5× (final 100 uM in Compound Buffer: HBSS/20 mM HEPES/0.005% BSA)
Compounds dilutions were prepared from 5 or 10 mM stock (100% DMSO): • Adjustments of volumes and concentrations were made at time of titration to reflect desired final assay concentrations. • Compounds were tested at either 20 μM three folds dilution 11 steps out or 30 μM two folds dilution 11 steps out. • 3 μl of diluted compound were transferred into Weidmann 384-well plate in duplicates side-by-side. • Compound plates were resuspended with 100 ul of HBSS/20 mM HEPES/0.005% BSA buffer (Compound Buffer): • column 1A-H: buffer/DMSO (bk) • column 2A-H: AP-18 (control antagonist for CHOK1 TRPA1 cells) • column 1I-P: ATP (control for CHOK1 teton cells) • column 2I-P: 2APB (control antagonist for CHOK1/TRPM8 cells).
Growth media was removed from the cell plates (20 ul) and 20 μl of the Replacement Buffer was added followed by addition of 25 μl of diluted dye. All three steps were performed using a Plate Washer BioTek 407. The plates were then incubated for 30′ at RT.
After incubation, both the cell and compound plates were brought to the FLIPR and 20 μl of the diluted compounds/antagonist/bk were transferred to the cell plates by the FLIPR. Plates were then incubated for 30′ at room temperature. After 30′ incubation, plates were returned to the FLIPR and 20 μl of 4.5× Cinnamaldehyde was added to the cell plates. During the compound addition as well as agonist addition, fluorescence readings were taken simultaneously from all 384 wells of the cell plate every 1.5 seconds. Five readings were taken to establish a stable baseline, then 20 μl of sample was rapidly (30 ul/sec) and simultaneously added to each well of the cell plate. The fluorescence was continuously monitored before, during and after sample/agonist addition for a total elapsed time of 100 seconds (compound addition) and 120 seconds (agonist addition). Responses (increase in peak fluorescence) in each well following agonist addition was determined. The initial fluorescence reading from each well, prior to ligand stimulation, was used a zero baseline value for the data from that well.
A general note: Calcium flux is commonly read through the fluorescence of an indicator in the cells.
By IC50 is commonly meant the midpoint of a concentration-inhibition curve. On to `O=C(Nc1ccc(Cl)cc1)O[C@@H](CN1CCOC(c2cccc(F)c2)C1)C(F)(F)F` (stereo partly drawn) [Example 47, (4-Chlorophenyl)-carbamic acid (S)-2,2,2-trifluoro-1-[2-(3-fluorophenyl)-morpholin-4-ylmethyl]-ethyl ester hydrochloride], for which the IC50 worked out at 130 nM. In the case of `O=C(Nc1ccc(Cl)cc1)O[C@@H](CN1CCS(=O)(=O)CC1)C(F)(F)F` [Example 48, (4-Chlorophenyl)-carbamic acid (S)-1-(1,1-dioxo-1λ^6-thiomorpholin-4-ylmethyl)-2,2,2-trifluoroethyl ester hydrochloride], the IC50 worked out at 3560 nM. Take `O=C(Nc1ccc(Cl)cc1)O[C@@H](CN1CCO[C@H](Cc2cccs2)C1)C(F)(F)F` [Example 49, (4-Chlorophenyl)-carbamic acid (S)-2,2,2-trifluoro-1-((R)-2-thiophen-2-ylmethyl-morpholin-4-ylmethyl)-ethyl ester hydrochloride]: the IC50 was 115 nM. As to `COc1ccc(C[C@@H]2CN(C[C@H](OC(=O)Nc3ccc(Cl)cc3)C(F)(F)F)CCO2)cn1` [Example 50, (4-Chloro-phenyl)-carbamic acid (S)-2,2,2-trifluoro-1-[(R)-2-(6-methoxy-pyridin-3-ylmethyl)-morpholin-4-ylmethyl]ethyl ester], the IC50 turned out to be 244 nM. For the molecule `COc1cccc(C[C@@H]2CN(C[C@H](OC(=O)Nc3ccc(Cl)cc3)C(F)(F)F)CCO2)n1` [Example 51, (4-Chlorophenyl)-carbamic acid (S)-2,2,2-trifluoro-1-[(R)-2-(6-methoxy-pyridin-2-ylmethyl)-morpholin-4-ylmethyl]ethyl ester], the IC50 was found to be 398 nM.
